Assay: xn = mol fraction of the nth substance listed
Conditions: Liquid; for viscosity: Capillary tube (Ostwald / Ubbelohde) method; for mass density: Vibrating tube method

O [water] + CCCO
x2 = 0
Conditions | mass density, 523.2 K [kg/m3] | mass density, 573.2 K [kg/m3] | mass density, 618.2 K [kg/m3] | viscosity, 523.2 K [mPa·s] | viscosity, 573.2 K [mPa·s] | viscosity, 618.2 K [mPa·s]
20000 kPa | 816.1 | 734.8 | 619.7 | 0.11 | 0.09 | 0.072
30000 kPa | 825.5 | 750.7 | 656.9 | 0.113 | 0.093 | 0.077
40000 kPa | 834.3 | 764.4 | 682.3 | 0.115 | 0.096 | 0.081

CCO [ethanol] + O
Conditions | mass density, 523.2 K [kg/m3] | mass density, 573.2 K [kg/m3] | mass density, 618.2 K [kg/m3] | viscosity, 523.2 K [mPa·s] | viscosity, 573.2 K [mPa·s] | viscosity, 618.2 K [mPa·s]
20000 kPa, x1 = 0.1 | 745.9 | 649.3 | 445.3 | 0.12 | 0.085 | 0.054
20000 kPa, x1 = 0.2 | 694.1 | 585.4 | 281.3 | 0.119 | 0.078 | 0.035
20000 kPa, x1 = 0.3 | 653.2 | 534.9 | 250.4 | 0.114 | 0.07 | 0.031
20000 kPa, x1 = 0.4 | 622.3 | 494.9 | 253.1 | 0.109 | 0.065 | 0.032
20000 kPa, x1 = 0.6 | 578.5 | 446.2 | 270.6 | 0.099 | 0.057 | 0.035
20000 kPa, x1 = 0.8 | 550.5 | 426.2 | 295 | 0.092 | 0.054 | 0.038
20000 kPa, x1 = 1 | 533.1 | 421.1 | 314.6 | 0.087 | 0.053 | 0.039
30000 kPa, x1 = 0.1 | 761.6 | 674.8 | 566.3 | 0.126 | 0.088 | 0.072
30000 kPa, x1 = 0.2 | 713.6 | 621.4 | 501.5 | 0.127 | 0.084 | 0.065
30000 kPa, x1 = 0.3 | 676.9 | 582.5 | 460.9 | 0.125 | 0.079 | 0.059
30000 kPa, x1 = 0.4 | 650.7 | 553.5 | 437.4 | 0.119 | 0.075 | 0.057
30000 kPa, x1 = 0.6 | 612.4 | 517.6 | 420.1 | 0.113 | 0.069 | 0.055
30000 kPa, x1 = 0.8 | 588.9 | 499 | 418.9 | 0.107 | 0.067 | 0.055
30000 kPa, x1 = 1 | 573.6 | 491.5 | 423.8 | 0.103 | 0.066 | 0.055
40000 kPa, x1 = 0.1 | 773.2 | 694.9 | 610.3 | 0.132 | 0.093 | 0.081
40000 kPa, x1 = 0.2 | 728.3 | 647.6 | 561 | 0.132 | 0.091 | 0.076
40000 kPa, x1 = 0.3 | 694.7 | 614 | 529.3 | 0.134 | 0.089 | 0.073
40000 kPa, x1 = 0.4 | 671.6 | 587.9 | 509.1 | 0.128 | 0.085 | 0.07
40000 kPa, x1 = 0.6 | 636.3 | 557.4 | 488.2 | 0.124 | 0.08 | 0.067
40000 kPa, x1 = 0.8 | 615.2 | 540.4 | 481.7 | 0.119 | 0.078 | 0.067
40000 kPa, x1 = 1 | 601.3 | 531 | 481.2 | 0.115 | 0.077 | 0.067
